Measured values from PubChem BioAssay (NCI).
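Dose response: 5 concentrations. Exposure: 48 h. Format: 96-well plates. Endpoint: linear interpolation; highest concentration if not reached. GI50 is the concentration that inhibits growth by half. At the TGI there is no net growth.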

Experiments:
Assay in all cases: NCI tumour cell line growth inhibition, 48 h
HOP-92 NSCLC = tested on: HOP-92 NSCLC
HCC-2998 colon = tested on: HCC-2998 colon
MOLT-4 leukemia = tested on: MOLT-4 leukemia
SK-MEL-2 melanoma = tested on: SK-MEL-2 melanoma
SNB-75 CNS = tested on: SNB-75 CNS
ACHN renal = tested on: ACHN renal
NCI-H226 lung = tested on: NCI-H226 lung
RXF 393 renal = tested on: RXF 393 renal
U251 CNS = tested on: U251 CNS
NCI-H460 lung = tested on: NCI-H460 lung
CCRF-CEM leukemia = tested on: CCRF-CEM leukemia
NCI-H23 lung = tested on: NCI-H23 lung
HL-60(TB) leukemia = tested on: HL-60(TB) leukemia
MDA-MB-435 = tested on: MDA-MB-435
HT29 colon = tested on: HT29 colon
UACC-62 melanoma = tested on: UACC-62 melanoma
SNB-19 CNS = tested on: SNB-19 CNS
SW-620 colon = tested on: SW-620 colon
A498 renal = tested on: A498 renal
IGROV1 ovarian = tested on: IGROV1 ovarian
HOP-62 NSCLC = tested on: HOP-62 NSCLC
NCI/ADR-RES ovarian = tested on: NCI/ADR-RES ovarian
OVCAR-8 ovarian = tested on: OVCAR-8 ovarian
SK-OV-3 ovarian = tested on: SK-OV-3 ovarian
BT-549 breast = tested on: BT-549 breast
SF-268 CNS = tested on: SF-268 CNS
UO-31 renal = tested on: UO-31 renal
K-562 leukemia = tested on: K-562 leukemia
786-0 renal = tested on: 786-0 renal
OVCAR-3 ovarian = tested on: OVCAR-3 ovarian
NCI-H522 lung = tested on: NCI-H522 lung
SK-MEL-5 melanoma = tested on: SK-MEL-5 melanoma
OVCAR-5 ovarian = tested on: OVCAR-5 ovarian
OVCAR-4 ovarian = tested on: OVCAR-4 ovarian
M14 melanoma = tested on: M14 melanoma
PC-3 prostate = tested on: PC-3 prostate
TK-10 renal = tested on: TK-10 renal
MALME-3M melanoma = tested on: MALME-3M melanoma
MCF7 breast = tested on: MCF7 breast
HS 578T breast = tested on: HS 578T breast
KM12 colon = tested on: KM12 colon
COLO 205 colon = tested on: COLO 205 colon
DU-145 prostate = tested on: DU-145 prostate
T-47D breast = tested on: T-47D breast
SF-295 CNS = tested on: SF-295 CNS
LOX IMVI melanoma = tested on: LOX IMVI melanoma
HCT-15 colon = tested on: HCT-15 colon
SN12C renal = tested on: SN12C renal
RPMI-8226 leukemia = tested on: RPMI-8226 leukemia
EKVX NSCLC = tested on: EKVX NSCLC
SF-539 CNS = tested on: SF-539 CNS
UACC-257 melanoma = tested on: UACC-257 melanoma
HCT-116 colon = tested on: HCT-116 colon
SK-MEL-28 melanoma = tested on: SK-MEL-28 melanoma
CAKI-1 renal = tested on: CAKI-1 renal
SR leukemia = tested on: SR leukemia
MDA-MB-231 breast = tested on: MDA-MB-231 breast
A549 NSCLC = tested on: A549 NSCLC

NS(=O)(=O)N(c1cc(C(F)(F)F)cc(C(F)(F)F)c1)C1CCN(Cc2ccc(F)cc2)CC1
GI50 (HOP-92 NSCLC): 1.87 µM | TGI (HOP-92 NSCLC): 15.2 µM | GI50 (HCC-2998 colon): 1.83 µM | TGI (HCC-2998 colon): 3.56 µM | GI50 (MOLT-4 leukemia): 8.51 µM | TGI (MOLT-4 leukemia): 29.6 µM | GI50 (SK-MEL-2 melanoma): 5.87 µM | TGI (SK-MEL-2 melanoma): 18.1 µM | GI50 (SNB-75 CNS): 13.2 µM | TGI (SNB-75 CNS): 25.9 µM | GI50 (ACHN renal): 11.2 µM | TGI (ACHN renal): 23.3 µM | GI50 (NCI-H226 lung): 6.73 µM | TGI (NCI-H226 lung): 21.7 µM | GI50 (RXF 393 renal): 4.42 µM | TGI (RXF 393 renal): 16.6 µM | GI50 (U251 CNS): 10.7 µM | TGI (U251 CNS): 24.5 µM | GI50 (NCI-H460 lung): 13.2 µM | TGI (NCI-H460 lung): 31 µM | GI50 (CCRF-CEM leukemia): 12 µM | TGI (CCRF-CEM leukemia): 36.3 µM | GI50 (NCI-H23 lung): 10.4 µM | TGI (NCI-H23 lung): 22.1 µM | GI50 (HL-60(TB) leukemia): 9.11 µM | TGI (HL-60(TB) leukemia): 28.6 µM | GI50 (MDA-MB-435): 6.4 µM | TGI (MDA-MB-435): 19.7 µM | GI50 (HT29 colon): 2.68 µM | TGI (HT29 colon): 7.51 µM | GI50 (UACC-62 melanoma): 12.7 µM | TGI (UACC-62 melanoma): 25.6 µM | GI50 (SNB-19 CNS): 14.3 µM | TGI (SNB-19 CNS): 27.8 µM | GI50 (SW-620 colon): 13.7 µM | TGI (SW-620 colon): 30.7 µM | GI50 (A498 renal): 12.3 µM | TGI (A498 renal): 26.1 µM | GI50 (IGROV1 ovarian): 4.89 µM | TGI (IGROV1 ovarian): 18 µM | GI50 (HOP-62 NSCLC): 3.51 µM | TGI (HOP-62 NSCLC): 14.1 µM | GI50 (NCI/ADR-RES ovarian): 6.72 µM | TGI (NCI/ADR-RES ovarian): 19.4 µM | GI50 (OVCAR-8 ovarian): 15.5 µM | TGI (OVCAR-8 ovarian): 33.9 µM | GI50 (SK-OV-3 ovarian): 10.9 µM | TGI (SK-OV-3 ovarian): 23.3 µM | GI50 (BT-549 breast): 12.5 µM | TGI (BT-549 breast): 24.9 µM | GI50 (SF-268 CNS): 10.9 µM | TGI (SF-268 CNS): 22.9 µM | GI50 (UO-31 renal): 3.67 µM | TGI (UO-31 renal): 16.4 µM | GI50 (K-562 leukemia): 3.68 µM | TGI (K-562 leukemia): 19 µM | GI50 (786-0 renal): 11.4 µM | TGI (786-0 renal): 23.5 µM | GI50 (OVCAR-3 ovarian): 7.6 µM | TGI (OVCAR-3 ovarian): 20.4 µM | GI50 (NCI-H522 lung): 3.52 µM | TGI (NCI-H522 lung): 13.4 µM | GI50 (SK-MEL-5 melanoma): 3.44 µM | TGI (SK-MEL-5 melanoma): 12.7 µM | GI50 (OVCAR-5 ovarian): 10.9 µM | TGI (OVCAR-5 ovarian): 23.2 µM | GI50 (OVCAR-4 ovarian): 10.5 µM | TGI (OVCAR-4 ovarian): 22.2 µM | GI50 (M14 melanoma): 6.12 µM | TGI (M14 melanoma): 18.4 µM | GI50 (PC-3 prostate): 4.54 µM | TGI (PC-3 prostate): 17.6 µM | GI50 (TK-10 renal): 12.2 µM | TGI (TK-10 renal): 25.4 µM | GI50 (MALME-3M melanoma): 2.31 µM | TGI (MALME-3M melanoma): 9.5 µM | GI50 (MCF7 breast): 5.44 µM | TGI (MCF7 breast): 18.5 µM | GI50 (HS 578T breast): 13.8 µM | TGI (HS 578T breast): 33.6 µM | GI50 (KM12 colon): 5.16 µM | TGI (KM12 colon): 17 µM | GI50 (COLO 205 colon): 1.64 µM | TGI (COLO 205 colon): 3.08 µM | GI50 (DU-145 prostate): 13.5 µM | TGI (DU-145 prostate): 26.3 µM | GI50 (T-47D breast): 2.74 µM | TGI (T-47D breast): 13.9 µM | GI50 (SF-295 CNS): 13.8 µM | TGI (SF-295 CNS): 27.7 µM | GI50 (LOX IMVI melanoma): 3.83 µM | TGI (LOX IMVI melanoma): 13.7 µM | GI50 (HCT-15 colon): 7.3 µM | TGI (HCT-15 colon): 21.8 µM | GI50 (SN12C renal): 2.97 µM | TGI (SN12C renal): 11.6 µM | GI50 (RPMI-8226 leukemia): 5.24 µM | TGI (RPMI-8226 leukemia): 22.3 µM | GI50 (EKVX NSCLC): 11.2 µM | TGI (EKVX NSCLC): 23.8 µM | GI50 (SF-539 CNS): 14.1 µM | TGI (SF-539 CNS): 27.6 µM | GI50 (UACC-257 melanoma): 11.5 µM | TGI (UACC-257 melanoma): 25.3 µM | GI50 (HCT-116 colon): 7.38 µM | TGI (HCT-116 colon): 19.8 µM | GI50 (SK-MEL-28 melanoma): 11.6 µM | TGI (SK-MEL-28 melanoma): 23.8 µM | GI50 (CAKI-1 renal): 7.21 µM | TGI (CAKI-1 renal): 20.4 µM | GI50 (SR leukemia): 2.4 µM | TGI (SR leukemia): 9.02 µM | GI50 (MDA-MB-231 breast): 12.1 µM | TGI (MDA-MB-231 breast): 26.2 µM | GI50 (A549 NSCLC): 12.4 µM | TGI (A549 NSCLC): 29.1 µM
